For orientation: IC50 means the concentration that inhibits the measured activity by half.

Structures are written as SMILES.

This note sets out measurements from ChEMBL document CHEMBL1131900, “4-Hydroxy-1-[3-(5-(1,2,4-triazol-4-yl)-1H-indol-3-yl)propyl]piperidines: selective h5-HT1D agonists for the treatment of migraine” (Bioorg Med Chem Lett, 1999).

Assay [1] addresses 5-hydroxytryptamine receptor 1B (Homo sapiens, UniProt P28222). The assay is described as follows: Ability to displace [3H]5-HT from recombinant human 5-hydroxytryptamine 1B receptor stably expressed in CHO cells determined in vitro. It counts as cell-based.
Assay [2] concerns the target T1, 5-hydroxytryptamine receptor 1D (Homo sapiens, UniProt P28221). The experiment in a line: Maximum stimulation of [35S]GTP gamma-S binding expressed relative to the maximal effect produced by 5-hydroxytryptamine 1D receptor. In kind it is functional. (In general: Binding of GTPγS marks nucleotide exchange on a G protein.)
Assay [3] concerns the target T1, 5-hydroxytryptamine receptor 1D. The experiment in a line: Ability to displace [3H]-5-HT from recombinant human 5-hydroxytryptamine 1D receptor stably expressed in CHO cells determined in vitro. It counts as cell-based.
Assay [4] shares this target. The experiment in a line: Measurement of agonist-induced [35S]-GTP gamma-S binding in CHO cells stably transfected with 5-hydroxytryptamine 1D receptor. In kind it is functional, cell-based.
The target in assay [5] is Serotonin 1 receptors; 5-HT1B & 5-HT1D (Homo sapiens) (UniProt P28222+P28221). The assay is described as follows: Binding selectivity for h5-HT1D receptor to that of h5-HT1B receptor. In kind it is protein assay.

Chain of 5-hydroxytryptamine receptor 1B (P28222 whole entry): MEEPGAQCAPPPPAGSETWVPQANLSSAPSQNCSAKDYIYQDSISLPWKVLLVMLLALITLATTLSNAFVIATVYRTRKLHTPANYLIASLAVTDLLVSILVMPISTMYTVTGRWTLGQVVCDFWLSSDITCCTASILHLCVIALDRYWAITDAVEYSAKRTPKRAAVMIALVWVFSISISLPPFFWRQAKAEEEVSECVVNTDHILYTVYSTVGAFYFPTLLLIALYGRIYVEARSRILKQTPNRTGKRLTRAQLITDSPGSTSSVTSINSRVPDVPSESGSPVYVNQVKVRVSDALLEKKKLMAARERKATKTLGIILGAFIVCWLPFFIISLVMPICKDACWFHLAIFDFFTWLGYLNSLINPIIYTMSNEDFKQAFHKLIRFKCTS
T1 sequence (P28221 whole entry): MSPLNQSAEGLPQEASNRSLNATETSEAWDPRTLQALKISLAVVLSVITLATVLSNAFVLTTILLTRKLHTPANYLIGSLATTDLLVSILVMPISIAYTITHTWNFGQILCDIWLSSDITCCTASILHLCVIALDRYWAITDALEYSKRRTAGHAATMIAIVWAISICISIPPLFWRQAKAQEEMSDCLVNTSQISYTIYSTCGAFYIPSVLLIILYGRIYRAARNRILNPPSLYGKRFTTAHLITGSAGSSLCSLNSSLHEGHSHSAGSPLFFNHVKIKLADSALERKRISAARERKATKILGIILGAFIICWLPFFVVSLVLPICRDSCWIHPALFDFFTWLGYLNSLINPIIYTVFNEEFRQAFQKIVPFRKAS

`CN(CC1CCCCC1)CC1(O)CCN(CCCc2c[nH]c3ccc(-n4cnnc4)cc23)CC1`: the values for the IC50 in assay [1] and in assay [3] were 27 nM and 1.2 nM, respectively. The compound further had an Activity in assay [2] of 69%. Further, the ED50 in assay [4] was 1.4 nM. Besides, the Ratio in assay [5] was 22.
Turning to `CC(=O)Nc1ccc(CNCC2(O)CCN(CCCc3c[nH]c4ccc(-n5cnnc5)cc34)CC2)cc1`, the IC50 turned out to be 30 nM in assay [1] and 11 nM in assay [3]. In addition, the Activity in assay [2] was 102%. Further, the ED50 in assay [4] was 14 nM. The Ratio in assay [5] came out at 3.
Turning to `OC1(CNCc2ccccn2)CCN(CCCc2c[nH]c3ccc(-n4cnnc4)cc23)CC1`, the IC50 in assay [1] was 55 nM; in assay [3], 3.2 nM. The compound further returned an Activity in assay [2] of 96%. In assay [4], the ED50 turned out to be 3.2 nM. Moreover, the Ratio in assay [5] is 17.
Turning to `OC1(CNCc2ccccc2)CCN(CCCc2c[nH]c3ccc(-n4cnnc4)cc23)CC1`, the values for the IC50 in assay [1] and in assay [3] were 47 nM and 0.45 nM, respectively. This compound registered an Activity in assay [2] of 79%. For the same compound, the ED50 in assay [4] was 2.2 nM. The Ratio in assay [5] is 106.
For `CC1(C)CCCN(CC2(O)CCN(CCCc3c[nH]c4ccc(-n5cnnc5)cc34)CC2)C1`, in that order: 19 nM, 0.65 nM, 67%, 0.9 nM and 29.
Turning to `CN(CC1CC1)CC1(O)CCN(CCCc2c[nH]c3ccc(-n4cnnc4)cc23)CC1`, the results for the IC50 in assay [1] and in assay [3] were 27 nM and 1.35 nM, respectively. Besides, the Activity in assay [2] worked out at 79%. The ED50 in assay [4] was found to be 1.1 nM. Besides, the Ratio in assay [5] stood at 20.
With `OC1(CNCC2CC2)CCN(CCCc2c[nH]c3ccc(-n4cnnc4)cc23)CC1`, the IC50 in assay [1] is 57 nM; in assay [3] it was 4.5 nM. Further, the Ratio in assay [5] came to 13.
Take `Cc1ccccc1CNCC1(O)CCN(CCCc2c[nH]c3ccc(-n4cnnc4)cc23)CC1`: the results for the IC50 in assay [1] and in assay [3] were 83 nM and 4 nM, respectively. Also, the Ratio in assay [5] is 21.
Regarding `CC(C)(C)OC(=O)NCC1(O)CCN(CCCc2c[nH]c3ccc(-n4cnnc4)cc23)CC1`, the values for the IC50 in assay [1] and in assay [3] were 340 nM and 21 nM, respectively. The Activity in assay [2] came to 86%. In assay [4], the ED50 is 9.7 nM. Besides, the Ratio in assay [5] turned out to be 16.
For `Cc1ccccc1CN(C)CC1(O)CCN(CCCc2c[nH]c3ccc(-n4cnnc4)cc23)CC1`, the values for the IC50 in assay [1] and in assay [3] were 89 nM and 1.3 nM, respectively. This compound also returned an Activity in assay [2] of 90%. Besides, the ED50 in assay [4] came out at 3.7 nM. In addition, the Ratio in assay [5] came to 68.
In the same order, the values of `CC(C)CN(C)CC1(O)CCN(CCCc2c[nH]c3ccc(-n4cnnc4)cc23)CC1` are 30 nM, 0.65 nM, 95%, 1.7 nM and 47.
In the case of `CN(Cc1ccccc1)CC1(O)CCN(CCCc2c[nH]c3ccc(-n4cnnc4)cc23)CC1`, the values for the IC50 in assay [1] and in assay [3] were 96 nM and 1.2 nM, respectively. The Activity in assay [2] worked out at 91%. Moreover, the ED50 in assay [4] stood at 3.8 nM. Also, the Ratio in assay [5] stood at 80.
For `CN(CC(C)(C)C)CC1(O)CCN(CCCc2c[nH]c3ccc(-n4cnnc4)cc23)CC1`, in that order: 61 nM, 1.8 nM, 60%, 1.6 nM and 34.
In the same order, the values of `OC1(Cc2ccccc2)CCN(CCCc2c[nH]c3ccc(-n4cnnc4)cc23)CC1` are 32 nM, 0.1 nM, 64%, 0.25 nM and 251.
Take `CC(C)(C)CNCC1(O)CCN(CCCc2c[nH]c3ccc(-n4cnnc4)cc23)CC1`: the IC50 in assay [1] is 85 nM; in assay [3] it was 7.3 nM. Besides, the Ratio in assay [5] worked out at 12.
